Like-named read-outs stand apart in the source and are kept apart here.
Target: T1, hmGlu5 (Homo sapiens, UniProt P41594)
T1 construct: expressed in transfected cells; host or cells: HEK 293A
Assay: mGlu5 Ca2+ flux assay in HEK 293A cells (negative allosteric modulation of glutamate EC80 response)
Format: cell-based
Details: for remaining activity at 30 µM: HEK293-A, read-out: hmGlu5 NAM Emin (%)
In short: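 HEK 293A cells stably expressing rat or human mGlu5, Fluo-4 AM loaded; compound added 2.3 min before glutamate EC20, then EC80; Ca2+ fluorescence peak amplitudes (F/F0) normalised to glutamate max. IC50 from 4-parameter logistic fit, 10-point 1:3 curves, top 30 μM; partial NAMs plateau above 10% Glu Max.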

[1] = HEK 293A cells, Ca2+ flux, glutamate EC80, >10,000 = decrease without plateau, read-out: hmGlu5 NAM IC50

T1 sequence (P41594 21-1212): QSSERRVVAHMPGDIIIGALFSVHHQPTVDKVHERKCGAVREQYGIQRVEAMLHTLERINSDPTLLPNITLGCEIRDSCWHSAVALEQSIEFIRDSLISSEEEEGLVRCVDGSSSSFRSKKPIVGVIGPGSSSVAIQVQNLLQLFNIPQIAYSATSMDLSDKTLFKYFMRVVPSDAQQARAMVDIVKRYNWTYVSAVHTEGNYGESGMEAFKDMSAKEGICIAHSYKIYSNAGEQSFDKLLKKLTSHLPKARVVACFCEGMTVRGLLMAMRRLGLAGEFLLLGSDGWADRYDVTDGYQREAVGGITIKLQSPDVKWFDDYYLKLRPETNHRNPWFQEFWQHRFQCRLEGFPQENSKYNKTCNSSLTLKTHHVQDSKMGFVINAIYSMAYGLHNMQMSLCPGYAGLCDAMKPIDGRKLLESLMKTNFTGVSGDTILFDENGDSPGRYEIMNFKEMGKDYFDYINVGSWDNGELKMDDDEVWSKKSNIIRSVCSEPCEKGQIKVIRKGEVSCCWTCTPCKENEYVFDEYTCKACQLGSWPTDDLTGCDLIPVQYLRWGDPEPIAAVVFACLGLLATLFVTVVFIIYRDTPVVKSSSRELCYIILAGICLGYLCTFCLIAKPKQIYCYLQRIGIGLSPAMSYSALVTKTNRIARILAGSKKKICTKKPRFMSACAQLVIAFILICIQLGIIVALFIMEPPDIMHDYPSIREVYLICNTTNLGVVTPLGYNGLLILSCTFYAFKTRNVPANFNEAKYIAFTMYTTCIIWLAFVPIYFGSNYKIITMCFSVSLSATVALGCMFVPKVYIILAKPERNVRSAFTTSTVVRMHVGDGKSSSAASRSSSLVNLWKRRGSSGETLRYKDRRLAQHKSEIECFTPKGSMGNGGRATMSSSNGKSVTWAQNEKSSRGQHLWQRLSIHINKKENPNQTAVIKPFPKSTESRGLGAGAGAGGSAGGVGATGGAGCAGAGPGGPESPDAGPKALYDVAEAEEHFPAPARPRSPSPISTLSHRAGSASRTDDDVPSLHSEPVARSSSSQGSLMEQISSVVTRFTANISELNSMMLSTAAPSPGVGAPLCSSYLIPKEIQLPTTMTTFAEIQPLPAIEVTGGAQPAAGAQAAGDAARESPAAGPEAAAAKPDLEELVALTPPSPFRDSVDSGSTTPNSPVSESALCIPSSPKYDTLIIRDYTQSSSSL

| SMILES | remaining activity at 30 µM (% Glu max at 30 μM) | IC50 [1] | remaining activity at 30 µM | IC50 |
| --- | --- | --- | --- | --- |
| Cc1nc(-c2nc(-c3cscn3)no2)cc(-c2cncc(F)c2)c1F [Compound 53, 5-(5,5′-difluoro-6′-methyl-[3,4′-bipyridin]-2′-yl)-3-(thiazol-4-yl)-1,2,4-oxadiazole] | 23% | 481 nM |  |  |
| [2H]C([2H])([2H])c1cc(-c2cncc(F)c2)cc(-c2nnc(-c3ccc(F)cn3)o2)n1 [Compound 85, 2-(5-fluoro-6′-(methyl-d3)-[3,4′-bipyridin]-2′-yl)-5-(5-fluoropyridin-2-yl)-1,3,4-oxadiazole] | 1% | 450 nM |  |  |
| Cc1nc(-c2noc(-c3ccc(F)cn3)n2)cc(-c2cc(F)cc(F)c2)c1F [Compound 67, 3-(4-(3,5-difluorophenyl)-5-fluoro-6-methylpyridin-2-yl)-5-(5-fluoropyridin-2-yl)-1,2,4-oxadiazole] | 3% | 161 nM |  |  |
| Cc1cccc(-c2nnc(-c3cc(-c4cncc(F)c4)c(F)c(C)n3)o2)n1 [Compound 58, 2-(5,5′-difluoro-6′-methyl-[3,4′-bipyridin]-2′-yl)-5-(6-methylpyridin-2-yl)-1,3,4-oxadiazole] |  | > 10000 nM | 31% |  |
| Cc1nc(-c2nnc(-c3ccccn3)o2)cc(-c2cncc(F)c2)c1F [Compound 79, 2-(5,5′-difluoro-6′-methyl-[3,4′-bipyridin]-2′-yl)-5-(pyridin-2-yl)-1,3,4-oxadiazole] |  | 673 nM | 2% |  |
| Cc1ccncc1-c1cc(-c2nc(-c3cccc(F)c3)c[nH]2)nc(C)c1F [Compound 63, 3′-fluoro-6′-(4-(3-fluorophenyl)-1H-imidazol-2-yl)-2′,4-dimethyl-3,4′-bipyridine] | 4% | 1090 nM |  |  |
| COCCOc1c(-c2cncc(F)c2)cc(-c2noc(-c3ccc(F)cn3)n2)nc1C [Compound 54, 3-(5-fluoro-5′-(2-methoxyethoxy)-6′-methyl-[3,4′-bipyridin]-2′-yl)-5-(5-fluoropyridin-2-yl)-1,2,4-oxadiazole] | 3% | 562 nM |  |  |
| [2H]C([2H])([2H])Oc1c(-c2cncc(F)c2)cc(-c2nc(-c3ccc(F)cn3)no2)nc1C [Compound 103, 5-(5-fluoro-5′-(methoxy-d3)-6′-methyl-[3,4′-bipyridin]-2′-yl)-3-(5-fluoropyridin-2-yl)-1,2,4-oxadiazole] | 5% | 624 nM |  |  |
| Cc1nc(-c2nnc(-c3ccc(F)cn3)o2)cc(-c2cnn(C(F)F)c2)c1F [Compound 74, 2-(4-(1-(difluoromethyl)-1H-pyrazol-4-yl)-5-fluoro-6-methylpyridin-2-yl)-5-(5-fluoropyridin-2-yl)-1,3,4-oxadiazole] | 2% | 148 nM |  |  |
| CCn1cc(-c2cc(-c3noc(-c4nc(C)cs4)n3)nc(C)c2F)cn1 [Compound 17, 3-(4-(1-ethyl-1H-pyrazol-4-yl)-5-fluoro-6-methylpyridin-2-yl)-5-(4-methylthiazol-2-yl)-1,2,4-oxadiazole] | 25% | > 10000 nM |  |  |
| Cc1nc(-c2nnc(-c3ccncc3)o2)cc(-c2cncc(F)c2)c1F [Compound 81, 2-(5,5′-difluoro-6′-methyl-[3,4′-bipyridin]-2′-yl)-5-(pyridin-4-yl)-1,3,4-oxadiazole] |  |  | 55% | > 10000 nM |
| COc1ncc(-c2cc(-c3nnc(-c4ccc(F)cn4)o3)nc(C)c2F)cc1F [Compound 76, 2-(5,5′-difluoro-6-methoxy-6′-methyl-[3,4′-bipyridin]-2′-yl)-5-(5-fluoropyridin-2-yl)-1,3,4-oxadiazole] | 9% | 5750 nM |  |  |
| COc1c(-c2cncc(F)c2)cc(-c2nc(-c3ccc(F)cn3)no2)nc1C [Compound 14, 5-(5-fluoro-5′-methoxy-6′-methyl-[3,4′-bipyridin]-2′-yl)-3-(5-fluoropyridin-2-yl)-1,2,4-oxadiazole] | 2% | 339 nM |  |  |
| Cc1ccncc1-c1cc(-c2n[nH]c(-c3ccc(F)cn3)n2)nc(C)c1F [Compound 97, 3′-fluoro-6′-(5-(5-fluoropyridin-2-yl)-1H-1,2,4-triazol-3-yl)-2′,4-dimethyl-3,4′-bipyridine] | 2% | 183 nM |  |  |
| Cc1csc(-c2nc(-c3cc(-c4cnccc4C)c(F)c(C)n3)no2)n1 [Compound 15, 3-(5′-fluoro-4,6′-dimethyl-[3,4′-bipyridin]-2′-yl)-5-(4-methylthiazol-2-yl)-1,2,4-oxadiazole] | 2% | 97 nM |  |  |
| Cc1cccc(-c2nc(-c3cc(-c4cnccc4C)c(F)c(C)n3)no2)c1 [Compound 28, 3-(5′-fluoro-4,6′-dimethyl-[3,4′-bipyridin]-2′-yl)-5-(m-tolyl)-1,2,4-oxadiazole] | 2% | 69 nM |  |  |
| Cc1nc(-c2noc(C3CCCCC3)n2)cc(-c2cncc(F)c2)c1F [Compound 36, 5-cyclohexyl-3-(5,5′-difluoro-6′-methyl-[3,4′-bipyridin]-2′-yl)-1,2,4-oxadiazole] | 51% | > 10000 nM |  |  |

| SMILES | remaining activity at 30 µM (% Glu max at 30 μM) | IC50 [1] | remaining activity at 30 µM | IC50 |
| --- | --- | --- | --- | --- |
| Cc1ccncc1-c1cc(-c2noc(-c3ccc(F)cn3)n2)nc(C(F)F)c1 [Compound 60, 3-(6′-(difluoromethyl)-4-methyl-[3,4′-bipyridin]-2′-yl)-5-(5-fluoropyridin-2-yl)-1,2,4-oxadiazole] | 4% | 187 nM |  |  |
| Cc1cc(-c2cncc(F)c2)cc(-c2nc(-c3ccc(F)cn3)no2)n1 [Compound 90, 5-(5-fluoro-6′-methyl-[3,4′-bipyridin]-2′-yl)-3-(5-fluoropyridin-2-yl)-1,2,4-oxadiazole] | 2% | 123 nM |  |  |
| Cc1ccnc(-c2nc(-c3cc(-c4cnccc4C)c(F)c(C)n3)no2)c1 [Compound 88, 3-(5′-fluoro-4,6′-dimethyl-[3,4′-bipyridin]-2′-yl)-5-(4-methylpyridin-2-yl)-1,2,4-oxadiazole] | 3% | 245 nM |  |  |
| Cc1cccc(-c2nc(-c3cc(-c4cnccc4C)c(F)c(C)n3)no2)n1 [Compound 22, 3-(5′-fluoro-4,6′-dimethyl-[3,4′-bipyridin]-2′-yl)-5-(6-methylpyridin-2-yl)-1,2,4-oxadiazole] | 3% | 1090 nM |  |  |
| Cc1ccncc1-c1cc(-c2noc(-c3ccncc3)n2)nc(C)c1F [Compound 93, 3-(5′-fluoro-4,6′-dimethyl-[3,4′-bipyridin]-2′-yl)-5-(pyridin-4-yl)-1,2,4-oxadiazole] | 2% | 221 nM |  |  |
| Cc1nc(-c2noc(-c3ccc(F)cn3)n2)cc(-c2cnccc2Cl)c1F [Compound 69, 3-(4-chloro-5′-fluoro-6′-methyl-[3,4′-bipyridin]-2′-yl)-5-(5-fluoropyridin-2-yl)-1,2,4-oxadiazole] | 3% | 109 nM |  |  |
| Cc1nc(-c2noc(-c3cccc(Cl)c3)n2)cc(-c2cncc(F)c2)c1F [Compound 44, 5-(3-chlorophenyl)-3-(5,5′-difluoro-6′-methyl-[3,4′-bipyridin]-2′-yl)-1,2,4-oxadiazole] |  | 5800 nM | 34% |  |
| Cc1cc(F)nc(-c2cc(-c3noc(-c4ccc(F)cn4)n3)nc(C)c2F)c1 [Compound 66, 3-(5′,6-difluoro-4,6′-dimethyl-[2,4′-bipyridin]-2′-yl)-5-(5-fluoropyridin-2-yl)-1,2,4-oxadiazole] | 9% | 1890 nM |  |  |
| Cc1nc(-c2noc(-c3ccc(F)cn3)n2)cc(-c2cncc(F)c2)c1F [Compound 6, 3-(5,5′-difluoro-6′-methyl-[3,4′-bipyridin]-2′-yl)-5-(5-fluoropyridin-2-yl)-1,2,4-oxadiazole] | 2% | 59 nM |  |  |
| COc1cc(-c2cc(-c3nnc(-c4ccc(F)cn4)o3)nc(C)c2F)ccn1 [Compound 108, 2-(5-fluoro-2′-methoxy-6-methyl-[4,4′-bipyridin]-2-yl)-5-(5-fluoropyridin-2-yl)-1,3,4-oxadiazole] | 1% | 94 nM |  |  |
| [2H]C([2H])([2H])c1cc(-c2cncc(F)c2)cc(-c2noc(-c3ccc(F)cn3)n2)n1 [Compound 35, 3-(5-fluoro-6′-(methyl-d3)-[3,4′-bipyridin]-2′-yl)-5-(5-fluoropyridin-2-yl)-1,2,4-oxadiazole] | 2% | 207 nM |  |  |
| Cc1csc(-c2nnc(-c3cc(-c4cncc(F)c4)c(F)c(C)n3)o2)n1 [Compound 83, 2-(5,5′-difluoro-6′-methyl-[3,4′-bipyridin]-2′-yl)-5-(4-methylthiazol-2-yl)-1,3,4-oxadiazole] |  | 600 nM | 2% |  |
| Cc1cc(O[C@@H]2CCOC2)cc(-c2noc(-c3nc(C)cs3)n2)n1 [Compound 106, (R)-3-(6-methyl-4-((tetrahydrofuran-3-yl)oxy)pyridin-2-yl)-5-(4-methylthiazol-2-yl)-1,2,4-oxadiazole] | 2% | 387 nM |  |  |
| COc1c(-c2cncc(F)c2)cc(-c2n[nH]c(-c3cccc(F)c3)n2)nc1C [Compound 101, 5-fluoro-6′-(5-(3-fluorophenyl)-1H-1,2,4-triazol-3-yl)-3′-methoxy-2′-methyl-3,4′-bipyridine] | 11% | 114 nM |  |  |
| Cc1csc(-c2nc(-c3cc(-c4cnc(C)s4)c(F)c(C)n3)no2)n1 [Compound 18, 3-(5-fluoro-6-methyl-4-(2-methylthiazol-5-yl)pyridin-2-yl)-5-(4-methylthiazol-2-yl)-1,2,4-oxadiazole] | 13% | 1130 nM |  |  |
| Cc1nc(-c2noc(-c3ccc(F)cn3)n2)cc(-c2cc(F)cnc2Cl)c1F [Compound 32, 3-(2-chloro-5,5′-difluoro-6′-methyl-[3,4′-bipyridin]-2′-yl)-5-(5-fluoropyridin-2-yl)-1,2,4-oxadiazole] | 3% | 359 nM |  |  |
